The text below walks through data of paper PMC10945739, “Exploring Cassia mimosoïdes as a promising natural source of steroids with potent anti-cancer, urease inhibition, and antimicrobial properties” (RSC Advances, 2024).

One data set concerns H.pylori. The data set is described as follows: Antibacterial activity, agar well diffusion method. It counts as cell-based, Helicobacter pylori. From the text:
(§1) Antibacterial activity of the isolated and synthesized compounds was perform using agar well method. Three bacterial strains selected for this experiment were H.pylori, B. subtilis and S. aureus, for all of three strains compounds show good to mederate inhibition. […] The presence of H. pylori in the stomach has been associated with a range of gastric disorders, including peptic ulcers, gastritis, and an increased risk of gastric cancer. The bacterium's ability to manipulate the gastric environment through urease activity underscores its role in the development and progression of these conditions. Different studies have targeted H. pylori and its urease activity as potential avenues for therapeutic intervention and disease management (Fig. 4).
(§2) The agar well diffusion method evaluated every compound separately. Each sterile Petri plate was aseptically filled with 20 mL of the agar medium, which was then […]. The media then solidified at room temperature. Various bacterial strains were put to agar plates using a sterile cotton swab. A 6 mm-diameter well was drilled using a sterilized cork borer. Each isolated compound was dissolved in 1 mL of a 20% DMSO solution. In a well with a diameter of 6 mm, […] of the standard drug and isolated compounds were added. […] The zone of inhibition was graphed and quantified in millimeters.[20]

A further data set concerns S. aureus. The data set is described as follows: Antibacterial activity, agar well diffusion method. Type of data set: cell-based, Staphylococcus aureus.
For the next data set, the target named is Jack bean urease (Canavalia ensiformis, UniProt P07374). The data set is described as follows: biochemical. Type of data set: biochemical. Here is the method: The inhibition potential of the isolated compounds against urease was investigated using a SpectraMax M2 reader using 96-well microplates.
The kinetic assay involved preparing varying concentrations of both the test compound and the substrate (urea), spanning 0 μM, 5 μM, 10 μM, 15 μM, and 20 μM. The resulting data was utilized to construct a Lineweaver–Burk plot.
In 96-well plates were incubated at 37 °C for 15 min, reaction mixtures consisting of 25 μL of test compounds (each 0.5 mM), 25 μL of enzyme solution (Jack bean urease) and 55 μL of buffers containing 20.79 mM urea. The indophenol method described by Weatherburn[21] was used to determine urease inhibitor activity by measuring ammonia production. Briefly, to each well were added 70 μL of alkaline reagent (0.5% w/v NaOH and 0.1% active chloride, NaOCl) and 45 μL of phenolic reagent (1% w/v phenol and 0.005% w/v sodium nitroprusside). The microplate reader (Molecular Devices, USA) was used to measure the increase in absorbance at 650 nm after 50 min. A final volume of 245 μL was required to perform all reactions in a triplicate. The results (absorbance change per minute) were processed using SoftMax Pro software (Molecular Devices, USA). All assays were performed at pH 6.8. Inhibition percentages were calculated from the formula% Inhibition = 100 − (Abs(sample)/Abs(control)) × 100where “A” is the absorbance of the “test well” as well as the “control”. Thiourea was used as a standard.

The next data set has as its system B. subtilis. Nature of the data set: Antibacterial activity, agar well diffusion method. It counts as cell-based. As to conditions: Table S2; unit not given.
Excerpt: as §1, §2

The subject of data set [1] is human HepG2 hepatic cancer cells. Nature of the data set: MTT cell viability assay. It counts as cell-based. As to conditions: HepG2, MTT, 48 hours, at 200 μg. Here is the method: The human liver cells were cultivated in Dulbecco's modified Eagle medium (DMEM) in which 100 U mL^−1 penicillin, 10% fetal bovine and […] streptomycin were added and kept at 37 °C in a […] carbon dioxide induced humidified environment. The human liver cells prepared as per above procedure were then treated with synthesized compounds diluted to 0.05% DMSO concentration.
Using MTT assay, the % viability of cancer cells 36 was evaluated. According to the standard procedure, HepG2 cells were treated with various dosages of synthesized compounds for 48 hours each. The cells were then incubated for 4 hours at 37 °C with 10μ MTT reagent (5 mg mL^−1). Next, in 150 μL DMSO was added to dissolve formazan crystals. The λmax was recorded at 409 nm in a microplate reader (thermos scientific).

Where [2] appears, read: Table S2 and b89, unit not given.

Values after ≈ are worked out from the molar mass of the structure shown. Where two headings read alike, the source gives them in different places.

Jack bean urease, sequence (P07374 whole entry, looked up): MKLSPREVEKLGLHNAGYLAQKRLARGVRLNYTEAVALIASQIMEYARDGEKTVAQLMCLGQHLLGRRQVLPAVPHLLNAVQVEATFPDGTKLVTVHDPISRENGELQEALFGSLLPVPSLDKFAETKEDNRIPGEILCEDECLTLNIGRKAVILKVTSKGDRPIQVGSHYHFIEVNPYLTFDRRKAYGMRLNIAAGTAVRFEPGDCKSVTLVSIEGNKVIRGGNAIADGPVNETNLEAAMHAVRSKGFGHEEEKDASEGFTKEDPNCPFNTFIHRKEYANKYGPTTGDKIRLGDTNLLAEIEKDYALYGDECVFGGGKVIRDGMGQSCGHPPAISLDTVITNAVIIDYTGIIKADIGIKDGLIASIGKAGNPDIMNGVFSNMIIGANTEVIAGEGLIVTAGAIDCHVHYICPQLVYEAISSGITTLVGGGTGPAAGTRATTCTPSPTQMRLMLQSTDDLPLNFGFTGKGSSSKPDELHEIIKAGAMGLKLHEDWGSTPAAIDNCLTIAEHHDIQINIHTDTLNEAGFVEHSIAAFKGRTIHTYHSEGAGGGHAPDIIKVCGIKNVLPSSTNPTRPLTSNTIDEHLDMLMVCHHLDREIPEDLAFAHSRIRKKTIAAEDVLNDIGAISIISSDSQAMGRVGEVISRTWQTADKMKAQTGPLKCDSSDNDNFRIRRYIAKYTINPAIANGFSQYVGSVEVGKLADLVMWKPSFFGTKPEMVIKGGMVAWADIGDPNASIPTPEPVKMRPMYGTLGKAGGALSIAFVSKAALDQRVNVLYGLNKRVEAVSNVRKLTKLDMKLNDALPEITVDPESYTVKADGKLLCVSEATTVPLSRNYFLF
Description for S. aureus: The agar well diffusion method evaluated every compound separately. Each sterile Petri plate was aseptically filled with 20 mL of the agar medium, which was then autoclaved at 120 °C to destroy any germs. The media then solidified at room temperature. Various bacterial strains were put to agar plates using a sterile cotton swab. A 6 mm-diameter well was drilled using a sterilized cork borer. […] In a well with a diameter of 6 mm, 20 mL of the standard drug and isolated compounds were added. At 37 °C, the test plates were incubated for 24 hours. The test plates were incubated at 37 °C for 24 hours. The standard disc containing 50 mg of ciprofloxacin served as a positive control for antibacterial activity, and DMSO served as a negative control.

`C=C(CCC(=CC)C(C)C)C1CCC2C3=CCC4C(C)C(O)CCC4(C)C3CCC12C` (stereo not drawn) [Compound 1, 21-methylene-24-ethylidene lophenol]: the MIC in the data set on H.pylori (Helicobacter pylori, abstract, read-out: MIC against H. pylori) worked out at 0.28 µg/mL (≈ 0.659 µM); in the data set on S. aureus (Staphylococcus aureus, abstract, read-out: MIC against S. aur), 0.12 µg/mL (≈ 0.283 µM). Besides, the IC50 on Jack bean urease stood at 1020 ± 350 nM. Besides, the inhibition at 500 µM on Jack bean urease (pH 6.8, read-out: % Inhibition of urease) was 82.3%. In addition, the “mode of inhibition, Lineweaver–Burk plot” value on Jack bean urease (urea and compound 0–20 μM) is reported as “competitive”.
As for `O=c1cc(-c2ccc(O)c(O)c2)oc2cc(O)c([C@@H]3O[C@H](CO)[C@@H](O)[C@H](O)[C@H]3O)c(O)c12` [Compound 7, Luteolin-6-C-β-D-glucopyranoside], in the data set on H.pylori (setting [2]), the “Antibacterial activity (MIC) against H.Pylori” value is 1.23. The “Antibacterial activity (MIC) against S. aureus” value in the data set with S. aureus (setting [2]) was found to be 0.78. Also, in the data set with B. subtilis, the “Antibacterial activity against B. subtilis” value is on record as 0.12. For the same compound, the IC50 at Jack bean urease (pH 6.8, read-out: IC50 ± SEM, urease) is 1220 ± 430 nM; at Jack bean urease (unit inferred, read-out: IC50, urease (printed in Fig. 6)) it was 1220 ± 430 nM. Also, the “% Inhibition of urease” value on Jack bean urease (test compounds each 0.5 mM, pH 6.8) is given as 81.57%. Besides, the “% Viability” value in data set [1] came to 97.94 ± 3.53%.
